In patent publication US20060293249A1, “Porphyrin derivatives” (PhotoBiotics Limited, priority 2002, published 2006):
Like-named read-outs stand apart in the source and are kept apart here.

Columns and labels:
[1] = Solubility remark in synthesis; assay type: physicochemical
[2] = in toluene; known standard value; cited from earlier work
[3] = Determination of singlet oxygen quantum yields (phosphorescence at 1270 nm following laser excitation, relative to reference standard); assay type: physicochemical
Method: Air equilibrated solutions of the sensitisers were optically matched at the laser excitation wavelength along with that of the reference standard whose singlet oxygen quantum yield is known. Singlet oxygen generation is detected by its phosphorescence at 1270 nm following laser excitation. At each laser intensity the recorded phosphorescence trace was obtained by signal averaging 10 single shots. A linear regression between the signal amplitude and the laser intensity is carried out with the aim of calculating the slope of the straight line and since the gradient is proportional to the singlet oxygen quantum yield, by comparison with the gradient obtained for the standard, the singlet oxygen quantum yield for the sample can calculated using: φ=φstandard×(slopesample/slopestandard)×(absorptionsample/absorptionstandard)
This is a comparative method where the value obtained for φ is relative to that of a known standard. The quality of the results obtained are heavily dependent on the quality of the standard, which should be freshly prepared before measurements.

[4] = compounds known in the art; cited from earlier work

Compound: 5-Nonane-10,15,20-triiodo-porphyrin [[18]]
- solubility [1]: limited solubility

Compound: 5-Pentane-10,15,20-triiodo-porphyrin [[30]]
- solubility [1]: limited solubility

Compound: C[Si](C)(C)CCOC(=O)c1ccc(OCCCCCc2c3nc(c(I)c4ccc([nH]4)c(I)c4nc(c(I)c5ccc2[nH]5)C=C4)C=C3)cc1 [[9], 5-[5-(2′-(trimethylsilyl)ethyl-4-hydroxybenzoate)pentane]-10,15,20-triiodo-porphyrin]
- solubility [1]: limited solubility

Compound: C=Cc1c(C)c2cc3nc(c4c5[n-]c(cc6nc(cc1[n-]2)C(C)=C6CC)c(C)c5C(=O)[C@@H]4C(=O)OC)[C@@H](CCC(=O)OC/C=C(\C)CCC[C@H](C)CCC[C@H](C)CCCC(C)C)[C@@H]3C.[Mg+2] [chlorophyll A]
- singlet oxygen quantum yield of reference standard [2]: 0.6

Compound: Zinc5-[5-(2′-(trimethylsilyl)ethyl-4-hydroxybenzoate)pentane]-10,15,20-tri-2-ethynylpyridine-porphyrin [Compound [11]]
- singlet oxygen quantum yield [3]: around 0.81
- singlet oxygen quantum yield ([3]; in toluene): 0.8109

Compound: disulfonated aluminium phthalocyanine [AIPCS2]
- singlet oxygen quantum yield [4]: 0.3
